Experimental data as given in patent US8748347B2 (priority 2009, dated 2014).

Key:
Septoria tritici = experiment: Fungicidal action on pathogens, growth in medium analyzed at 405 nm (Example 3); format: cell-based; settings: 2% malt medium, 125 ppm, 18° C., seven days
Protocol: Various pathogens were tested under respective test mediums and concentrations of UV filters (see Table 2). The pathogens were incubated at a temperature of 18° C. for seven days. The growth of the pathogens was compared to an untreated sample. Table 2 lists the growth compared to the untreated sample, which corresponds to 100%. The growth was analyzed at 405 nm.

Ramularia collo-cygni = experiment: Preventive action on winter barley against Ramularia collo-cygni, field trial (Example 2); format: in vivo; settings: barley variety Malwinta, natural infection, application at BBCH 49, evaluated 12 days after application, 0 = as untreated, 100 = not infected, UV Filter A 500 g ai/ha, Actives A & B 240 & 297 g ai/ha
Protocol: As active substance a mixture of active substances was used called “Actives A & B”, which was prepared by mixing Active A and Active B. Active A was a fungicidal suspension concentrate comprising 6 wt % epoxiconazol, 20.8 wt % boscalid, 11.2-12.6 wt % fatty alcohol alkoxylate, C8-alkyl glucoside, and phenolsulfonic acid-formaldehyde-polycondensate sodium salt (commercially available pesticide formulation from BASF SE as Champion®). Active B a fungicidal suspoemulsion comprising 20.6 wt % fenpropimorph, 11 wt % pyraclostrobin, 4.1 wt % epoxiconazol, 20.5 wt % solvent naphtha, 11 wt % fatty alcohol ethoxylate and 4.8 wt % phenolsulfonic acid-formaldehyde-polycondensate sodium salt (commercially available pesticide formulation from BASF SE as Diamant®). UV Filter A was prepared as described in example 1.
The biological trial was conducted under field conditions. The barley variety Malwinta was planted and grown under standard conditions with adequate supply of water and nutrients. […] The disease incidences were evaluated 12 days after application.
The diseases were converted into efficacies. […] The expected efficacies of active compound mixtures were determined using Colby's formula [R. S. Colby, “Calculating synergistic and antagonistic responses of herbicide combinations”, Weeds 15, 20-22 (1967)] and compared with the observed efficacies.

Phytophthora infestans = format: cell-based; settings: YPBG medium, 125 ppm, 18° C., seven days

COCCOCCOCCOCCOCCOCCOCCOC(=O)C(C#N)=C(c1ccccc1)c1ccccc1 [UV Filter A, 2-Cyano-3,3-diphenyl-acrylsäure-[Pluriol A350E]-ester]
Growth (%) relative to untreated sample (Septoria tritici): 40%
Efficacy (Ramularia collo-cygni): 0
Growth (%) relative to untreated sample (Phytophthora infestans): 78%
